According to ChEMBL document CHEMBL6127058, “Overview of the PRMT6 modulators in cancer treatment: Current progress and emerged opportunity” (Eur J Med Chem, 2024):
pIC50: −log10 of the molar value.

Assays:
[1] = molecular target: T1, Histone-arginine methyltransferase CARM1 (Homo sapiens, UniProt Q86X55); experiment: Inhibition PRMT4 (unknown origin)
T1 sequence (Q86X55 whole entry): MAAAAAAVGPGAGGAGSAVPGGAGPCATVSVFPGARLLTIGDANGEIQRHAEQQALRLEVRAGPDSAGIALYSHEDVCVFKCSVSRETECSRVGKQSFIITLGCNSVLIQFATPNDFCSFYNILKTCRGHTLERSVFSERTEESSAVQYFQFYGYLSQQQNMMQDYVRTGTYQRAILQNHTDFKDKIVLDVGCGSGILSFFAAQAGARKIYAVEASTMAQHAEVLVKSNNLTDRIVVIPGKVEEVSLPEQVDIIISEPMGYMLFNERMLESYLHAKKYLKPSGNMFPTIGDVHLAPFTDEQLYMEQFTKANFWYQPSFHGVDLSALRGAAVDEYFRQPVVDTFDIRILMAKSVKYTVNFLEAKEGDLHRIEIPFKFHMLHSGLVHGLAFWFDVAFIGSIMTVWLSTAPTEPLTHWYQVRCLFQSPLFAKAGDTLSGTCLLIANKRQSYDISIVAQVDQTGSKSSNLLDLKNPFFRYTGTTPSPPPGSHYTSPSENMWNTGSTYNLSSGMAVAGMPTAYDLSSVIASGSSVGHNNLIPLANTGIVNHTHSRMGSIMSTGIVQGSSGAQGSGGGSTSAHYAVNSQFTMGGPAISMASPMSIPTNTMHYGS

[2] = molecular target: Protein arginine N-methyltransferase 8 (Homo sapiens, UniProt Q9NR22); experiment: Inhibition of PRMT8 (unknown origin)
[3] = molecular target: T2, Protein arginine N-methyltransferase 1 (Homo sapiens, UniProt Q99873); experiment: Inhibition of PRMT1 (unknown origin)
[4] = molecular target: T2, Protein arginine N-methyltransferase 1; experiment: Inhibition of PRMT1 (unknown origin) by TR-FRET analysis
[5] = molecular target: Protein arginine N-methyltransferase 6 (Homo sapiens, UniProt Q96LA8); experiment: Inhibition of PRMT6 (unknown origin)
Sequence of Protein arginine N-methyltransferase 6 (Q96LA8 whole entry): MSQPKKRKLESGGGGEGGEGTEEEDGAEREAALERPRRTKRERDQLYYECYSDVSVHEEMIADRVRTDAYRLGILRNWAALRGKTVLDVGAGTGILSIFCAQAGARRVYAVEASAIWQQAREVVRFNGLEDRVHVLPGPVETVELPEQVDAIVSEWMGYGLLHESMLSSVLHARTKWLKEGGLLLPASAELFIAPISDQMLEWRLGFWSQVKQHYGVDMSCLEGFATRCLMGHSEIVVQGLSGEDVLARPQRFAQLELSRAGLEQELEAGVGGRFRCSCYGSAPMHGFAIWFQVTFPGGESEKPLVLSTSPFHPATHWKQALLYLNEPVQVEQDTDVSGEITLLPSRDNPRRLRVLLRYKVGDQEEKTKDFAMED

T2 sequence (Q99873 whole entry): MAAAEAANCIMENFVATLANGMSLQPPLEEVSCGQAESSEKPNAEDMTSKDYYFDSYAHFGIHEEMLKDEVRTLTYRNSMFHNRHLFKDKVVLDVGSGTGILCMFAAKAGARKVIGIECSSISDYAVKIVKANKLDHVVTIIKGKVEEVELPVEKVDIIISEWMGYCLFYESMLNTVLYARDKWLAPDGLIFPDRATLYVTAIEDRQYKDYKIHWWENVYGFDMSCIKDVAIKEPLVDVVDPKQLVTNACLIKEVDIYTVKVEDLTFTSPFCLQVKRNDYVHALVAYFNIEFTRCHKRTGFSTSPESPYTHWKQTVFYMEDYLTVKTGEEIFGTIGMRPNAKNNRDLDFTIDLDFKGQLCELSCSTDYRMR
Sequence of Protein arginine N-methyltransferase 8 (Q9NR22 whole entry): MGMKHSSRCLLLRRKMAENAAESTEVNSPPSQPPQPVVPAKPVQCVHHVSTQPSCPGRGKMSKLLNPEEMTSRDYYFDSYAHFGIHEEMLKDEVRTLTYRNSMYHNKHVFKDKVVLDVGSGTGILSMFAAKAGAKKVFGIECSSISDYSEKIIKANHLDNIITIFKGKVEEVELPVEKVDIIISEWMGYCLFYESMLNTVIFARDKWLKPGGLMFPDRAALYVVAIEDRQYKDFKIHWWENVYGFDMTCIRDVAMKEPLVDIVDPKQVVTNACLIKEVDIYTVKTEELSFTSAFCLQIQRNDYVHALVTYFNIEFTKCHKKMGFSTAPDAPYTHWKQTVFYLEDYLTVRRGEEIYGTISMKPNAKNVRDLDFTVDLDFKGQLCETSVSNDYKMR

For `Cc1cc(C)cc([C@@H]2c3cc(C)ccc3NC(=O)CN2C(=O)c2ccc(Br)s2)c1`, the pIC50 [1] was under 5.00, the pIC50 [2] was under 5.00 and the pIC50 [3] was under 5.00.
For `CNCCN(C)Cc1ccccc1Sc1ccccc1Cl`, the pIC50 [4] was 8.28.
In the case of `C=CC(C)(C)c1cc(/C=C/C(=O)c2ccc(O)cc2)c(OC)cc1O` [LICOAGROCHACONE A], the pIC50 [5] was 4.65.
